# Reference: patent US9556165B2 (priority 2012, dated 2017)
# Like-named read-outs stand apart in the source and are kept apart here.
# Experiments:
# Type in all cases: cell-based
# S. maltophilia ICB7569 = assay: MIC determination, broth microdilution (CLSI); conditions: for MIC: Stenotrophomonas maltophilia, ICB7569, strain 10
# K. pneumoniae 60 = assay: MIC determination, broth microdilution (CLSI); conditions: for MIC: Klebsiella pneumoniae, 60, strain 2
# H. influenzae ATCC 49247 = assay: MIC determination, broth microdilution (CLSI); conditions: broth microdilution; for MIC: Haemophilus influenzae, ATCC49247, strain 12, read-out: MIC strain 12 (H. influenzae ATCC 49247)
# A. baumannii ATCC15308 = assay: MIC determination, broth microdilution (CLSI); conditions: for MIC: Acinetobacter baumannii, ATCC15308, strain 9
# C. freundii K21/3034 = assay: MIC determination, broth microdilution (CLSI); conditions: for MIC: Citrobacter freundii, K21/3034, strain 4
# C. perfringens DSM756 = assay: microbe, parasite or virus in culture; conditions: broth microdilution; for MIC: Clostridium perfringens, DSM756, read-out: MIC strain 16 (C. perfringens DSM756), strain 16
# Bacteria = assay: MIC determination in combination with β-lactamase inhibitors (constant 4 μg/mL)
# [1] = system: P. aeruginosa 2297 (AmpC wt); assay: MIC determination, broth microdilution (CLSI); conditions: for MIC: Pseudomonas aeruginosa, strain 7
# P. aeruginosa PAO1 = assay: MIC determination, broth microdilution (CLSI); conditions: for MIC: Pseudomonas aeruginosa, PAO1, strain 6
# E. coli J62 = assay: MIC determination, broth microdilution (CLSI); conditions: broth microdilution; for MIC: Escherichia coli, J62, strain 17, read-out: MIC strain 17 (E. coli J62)
# E. coli ATCC25922 = assay: MIC determination, broth microdilution (CLSI); conditions: for MIC: Escherichia coli, ATCC25922, strain 1
# S. aureus 133 = assay: MIC determination, broth microdilution (CLSI)
# E. cloacae 34654 = assay: MIC determination, broth microdilution (CLSI); conditions: for MIC: Enterobacter cloacae, 34654, strain 3
# B. fragilis 6688 = assay: MIC determination, broth microdilution (CLSI); conditions: broth microdilution; for MIC: Bacteroides fragilis, 6688, strain 15, read-out: MIC strain 15 (B. fragilis 6688)
# [2] = system: P. aeruginosa 2297-con (AmpC derepressed); assay: MIC determination, broth microdilution (CLSI); conditions: for MIC: Pseudomonas aeruginosa, read-out: strain 8 MIC, strain 8
# E. coli J62-TEM-3 = assay: MIC determination, broth microdilution (CLSI); conditions: broth microdilution; for MIC: Escherichia coli, J62TEM3, read-out: MIC strain 18 (E. coli J62-TEM-3), strain 18
# S. pneumoniae 113 = assay: MIC determination, broth microdilution (CLSI); conditions: broth microdilution; for MIC: Streptococcus pneumoniae, 113, strain 13, read-out: MIC strain 13 (S. pneumoniae 113)
# M. morganii 126/3048 = assay: MIC determination, broth microdilution (CLSI); conditions: for MIC: Morganella morganii, 126/3048, strain 5
# [3] = Staphylococcus aureus, 133, strain 11, read-out: strain 11 MIC
# [4] = Staphylococcus aureus, 133, strain 14, broth microdilution, read-out: MIC strain 14 (S. aureus 133)
SMILES,strain 10 MIC (S. maltophilia ICB7569) [µg/mL],strain 2 MIC (K. pneumoniae 60),strain 9 MIC (A. baumannii ATCC15308) [µg/mL],strain 4 MIC (C. freundii K21/3034),MIC (C. perfringens DSM756) [µg/mL],MIC strain 19 (E. coli J62-TEM-3 + 4 μg/mL clavulanic acid) (Bacteria),MIC strain 20 (E. coli J62-TEM-3 + 4 μg/mL sulbactam) (Bacteria),MIC strain 21 (E. coli J62-TEM-3 + 4 μg/mL tazobactam) (Bacteria),MIC strain 17 (E. coli J62) (E. coli J62) [µg/mL],strain 1 MIC (E. coli ATCC25922),MIC (S. aureus 133; [3]) [µg/mL],strain 3 MIC (E. cloacae 34654) [µg/mL],MIC (B. fragilis 6688) [µg/mL],MIC (E. coli J62-TEM-3) [µg/mL],MIC (H. influenzae ATCC 49247) [µg/mL],MIC (S. pneumoniae 113) [µg/mL],MIC (S. maltophilia ICB7569) [µg/mL],MIC (C. freundii K21/3034) [µg/mL],MIC (E. coli J62) [µg/mL],MIC (M. morganii 126/3048) [µg/mL],also measured
"CC1(C)[C@H](NC(=O)/C(=N\OC(COc2ccc(C(=N)NCCN)cc2)C(=O)O)c2csc(N)n2)C(=O)N1OS(=O)(=O)O (mixture of isomers) [Example 44A, (2R and 2S)-3-{4-[N-(2-Aminoethyl)carbamimidoyl]phenoxy}-2-({[(1Z)-1-(2-amino-1,3-thiazol-4-yl)-2-{[(3S)-2,2-dimethyl-4-oxo-1-(sulfooxy)azetidin-3-yl]amino}-2-oxoethylidene]amino}oxy)propanoic acid]",2,≦0.063 mg/L,2,≦0.063 mg/L,1,≦0.063 mg/L,≦0.063 mg/L,≦0.063 mg/L,0.125,≦0.063 mg/L,≤ 0.063,0.125,8,2,,,,,,,MIC strain 12 (H. influenzae ATCC 49247) (H. influenzae ATCC 49247): ≦0.063 mg/L; strain 7 MIC [1]: 2 µg/mL; strain 6 MIC (P. aeruginosa PAO1): 1 µg/mL; MIC (S. aureus 133; [4]): 32 µg/mL; strain 8 MIC [2]: 1 µg/mL; MIC strain 13 (S. pneumoniae 113) (S. pneumoniae 113): 0.5 µg/mL; strain 5 MIC (M. morganii 126/3048): 0.125 µg/mL
"CC1(C)[C@H](NC(=O)/C(=N\OC(CO)COc2ccc(C(=N)N)cc2)c2csc(N)n2)C(=O)N1OS(=O)(=O)O (mixture of isomers) [Example 45B, (2Z)-2-(2-Amino-1,3-thiazol-4-yl)-2-({[(2R and 2S)-1-(4-carbamimidoylphenoxy)-3-hydroxypropan-2-yl]oxy}imino)-N-[(3S)-2,2-dimethyl-4-oxo-1-(sulfooxy)azetidin-3-yl]ethanamide]",32,2 µg/mL,4,1 µg/mL,2,2 µg/mL,4 µg/mL,4 µg/mL,4,2 µg/mL,≤ 0.063,4,4,,0.5,0.125,,,,,strain 7 MIC [1]: 32 µg/mL; strain 6 MIC (P. aeruginosa PAO1): 16 µg/mL; MIC strain 14 (S. aureus 133) (S. aureus 133; broth microdilution): 16 µg/mL; strain 8 MIC [2]: 32 µg/mL; MIC strain 18 (E. coli J62-TEM-3) (E. coli J62-TEM-3): 16 µg/mL; strain 5 MIC (M. morganii 126/3048): 4 µg/mL
"CC1(C)[C@H](NC(=O)/C(=N\OC(COc2ccc(C(=N)N)cc2)CC(=O)O)c2csc(N)n2)C(=O)N1OS(=O)(=O)O (mixture of isomers) [Example 46, 3-({[(1Z)-1-(2-Amino-1,3-thiazol-4-yl)-2-{[(3S)-2,2-dimethyl-4-oxo-1-(sulfooxy)azetidin-3-yl]amino}-2-oxoethylidene]amino}oxy)-4-(4-carbamimidoylphenoxy)butanoic acid]",,,,,4,1 µg/mL,1 µg/mL,1 µg/mL,,,,,32,16,0.25,1,8,1,2,1,MIC (K. pneumoniae 60): 1 µg/mL; MIC (A. baumannii ATCC15308): 16 µg/mL; MIC [1]: 32 µg/mL; MIC (P. aeruginosa PAO1): 8 µg/mL; MIC (E. coli ATCC25922): 2 µg/mL; MIC (E. cloacae 34654): 2 µg/mL; MIC [2]: 32 µg/mL
"CC1(C)[C@H](NC(=O)/C(=N\OC(CCO)COc2ccc(C(=N)N)cc2)c2csc(N)n2)C(=O)N1OS(=O)(=O)O (single isomer, unassigned) [Example 81A]",,,,,8,8 µg/mL,8 µg/mL,8 µg/mL,,,,16,16,,2,0.25,16,4,8,8,MIC (K. pneumoniae 60): 8 µg/mL; MIC (A. baumannii ATCC15308): 8 µg/mL; MIC (E. coli ATCC25922): 4 µg/mL; MIC (S. aureus 133; [4]): 32 µg/mL; MIC strain 18 (E. coli J62-TEM-3) (E. coli J62-TEM-3): 32 µg/mL
"CC1(C)[C@H](NC(=O)/C(=N\OC(CCO)COc2ccc(C(=N)N)cc2)c2csc(N)n2)C(=O)N1OS(=O)(=O)O (single isomer, unassigned) [Example 81B]",16,4 µg/mL,8,2 µg/mL,,4 µg/mL,4 µg/mL,4 µg/mL,4,2 µg/mL,,4,,,,,,,,,MIC strain 12 (H. influenzae ATCC 49247) (H. influenzae ATCC 49247): 2 µg/mL; MIC strain 16 (C. perfringens DSM756) (C. perfringens DSM756; strain 16): 4 µg/mL; MIC strain 14 (S. aureus 133) (S. aureus 133; broth microdilution): 32 µg/mL; MIC strain 15 (B. fragilis 6688) (B. fragilis 6688; strain 15): 16 µg/mL; MIC strain 18 (E. coli J62-TEM-3) (E. coli J62-TEM-3): 4 µg/mL; MIC strain 13 (S. pneumoniae 113) (S. pneumoniae 113): 0.125 µg/mL; strain 5 MIC (M. morganii 126/3048): 4 µg/mL
CC1(C)[C@H](NC(=O)/C(=N\OCCOc2ccc(C(=N)N)cc2)c2csc(N)n2)C(=O)N1OCS(=O)(=O)O [Example 90],,,,,16,0.5 µg/mL,0.5 µg/mL,1 µg/mL,,,0.5,,4,0.5,0.5,0.5,4,0.25,1,0.5,MIC [1]: 32 µg/mL; MIC (P. aeruginosa PAO1): 32 µg/mL; MIC (E. coli ATCC25922): 0.5 µg/mL; MIC (E. cloacae 34654): 1 µg/mL; MIC [2]: 32 µg/mL
"CC1(C)[C@H](NC(=O)/C(=N\O[C@@H](COc2ccc(C(=N)NCc3ncc[nH]3)cc2)C(=O)O)c2csc(N)n2)C(=O)N1OS(=O)(=O)O [Example 104, (2S)-2-({[(1Z)-1-(2-Amino-1,3-thiazol-4-yl)-2-{[(3S)-2,2-dimethyl-4-oxo-1-(sulfooxy)azetidin-3-yl]amino}-2-oxoethylidene]amino}oxy)-3-{4-[N-(1H-imidazol-2-ylmeth-yl)carbamimidoyl]phenoxy}propanoic acid]",,,,,8,1 µg/mL,1 µg/mL,1 µg/mL,,1 µg/mL,≤ 0.063,,,32,≤ 0.063,1,16,1,1,0.5,MIC (K. pneumoniae 60): 1 µg/mL; MIC (P. aeruginosa PAO1): 16 µg/mL; MIC (E. cloacae 34654): 1 µg/mL
